Measured values from patent US20180369426A1, “COMPOSITIONS COMPRISING FLUORESCENT DYES ASSOCIATED WITH VIRAL COMPONENTS FOR NERVE IMAGING” (priority 2008, published 2018).

Tested on: footpad nerves
Experiment: Mouse footpad injection, ICG fluorescence imaging of nerves (Example 3)
Assay type: in vivo
Conditions: 10 μL into footpad, imaged 2 hours after injection, back dissected (FIG. 3A)
Method: Example 3 is a comparison of imaging with a fluorescent dye alone versus a fluorescent dye bound to the virus. Unless otherwise specified, all images are digital images obtained from a CCD camera.
A mouse ([…]) was briefly anesthetized by halothane inhalation. The right footpad of the mouse was injected with 10 μL of ICG, phosphate buffered saline (PBS) and a virus mutant, HSV-2 ΔRR (“ICG/PBS/HSV-2 ΔRR mixture”). The left footpad was injected with 10 μl of ICG/PBS mixture as a control. The same concentration of ICG was present in both mixtures.
2 hours after footpad injections, the mouse was anesthetized and then euthanized with interperitoneal injection of sodium pentobarbital. ICG fluorescence images were acquired first of the intact mouse and then at various stages of dissection.

## CC1(C)C(/C=C/C=C/C=C/C=C2\N(CCCCS(=O)(=O)O)c3ccc4ccccc4c3C2(C)C)=[N+](CCCCS(=O)(=O)[O-])c2ccc3ccccc3c21 [ICG, indocyanine green]
  extent of fluorescence after footpad injection: limited to the left foot itself
